Measured values as given in ChEMBL document CHEMBL4346749, “Design, synthesis and evaluation of novel, potent DNA alkylating agents and their antibody-drug conjugates (ADCs)” (Bioorg Med Chem Lett, 2019).
pIC50: −log10 of the molar value.

Experiments:
Type in all cases: functional, cell-based
NAMALVA = test: Cytotoxicity against human NAMALWA cells assessed as reduction in cell viability after 5 days by WST-8 assay; conditions: 120 h
[1] = Cytotoxicity against human NCI-H2110 cells assessed as reduction in cell viability after 5 days by WST-8 assay; conditions: NCI-H2110, 120 h
KB = test: Cytotoxicity against human KB cells assessed as reduction in cell viability after 5 days by WST-8 assay; conditions: 120 h

| Compound | pIC50 (NAMALVA) | pIC50 [1] | pIC50 (KB) |
| --- | --- | --- | --- |
| COc1cc2c(cc1OCCCC(=O)Nc1cn(C)c(C(=O)Nc3ccc4sc(C(=O)NCC(C)(C)SSC)cc4c3)n1)N=C[C@@H]1Cc3ccccc3N1C2=O | 10.52 | – | – |
| COc1cc2c(cc1OCCCC(=O)Nc1cc(C(=O)Nc3ccc4sc(C(=O)NCC(C)(C)SSC)cc4c3)n(C)c1)N=C[C@@H]1Cc3ccccc3N1C2=O | 11.00 | 9.52 | 10.10 |
| COC(=O)CCNC(=O)c1cc2cc(NC(=O)c3cc(NC(=O)CCCOc4cc5c(cc4OC)C(=O)N4c6ccccc6C[C@H]4C=N5)cn3C)ccc2s1 | 10.52 | 9.70 | 10.40 |
| COc1cc2c(cc1OCCCC(=O)Nc1cn(C)c(C(=O)Nc3ccc(-c4cc(C(=O)NCC(C)(C)SSC)n(C)c4)cc3)n1)N=C[C@@H]1Cc3ccccc3N1C2=O | 11.00 | 10.22 | 10.40 |
| COc1cc2c(cc1OCCCC(=O)Nc1cn(C)c(C(=O)Nc3ccc(N)cc3)n1)N=C[C@@H]1Cc3ccccc3N1C2=O | 10.22 | 9.40 | 9.70 |
| COc1cc2c(cc1OCCCC(=O)Nc1cn(C)c(C(=O)Nc3ccc4sccc4c3)n1)N=C[C@@H]1Cc3ccccc3N1C2=O | 10.70 | 10.10 | 10.40 |
| COC(=O)c1cc2cc(NC(=O)c3cc(NC(=O)CCCOc4cc5c(cc4OC)C(=O)N4c6ccccc6C[C@H]4C=N5)cn3C)ccc2s1 | 10.70 | 10.30 | 11.00 |
| COC(=O)CCNC(=O)c1cc2cc(NC(=O)c3nc(NC(=O)CCCOc4cc5c(cc4OC)C(=O)N4c6ccccc6C[C@H]4C=N5)cn3C)ccc2o1 | 10.22 | 9.30 | 10.10 |
| COc1cc2c(cc1OCCCC(=O)Nc1nc(C(=O)Nc3ccc(NC(=O)CCC(C)(C)SSC)cc3)cs1)N=C[C@@H]1Cc3ccccc3N1C2=O | 10.52 | 9.22 | 10.00 |
| COc1cc2c(cc1OCCCC(=O)Nc1cc(C(=O)Nc3ccc(-c4cc(C(=O)NCC(C)(C)SSC)n(C)c4)cc3)n(C)c1)N=C[C@@H]1Cc3ccccc3N1C2=O | 10.52 | 10.00 | 11.00 |
| COc1cc2c(cc1OCCCC(=O)Nc1cn(C)c(C(=O)Nc3ccc(-c4cc(C(=O)NCC(C)(C)SSC)n(C)c4)cc3)n1)N=C[C@@H]1Cc3ccccc3CN1C2=O | 12.00 | 11.00 | 11.22 |
| COc1cc2c(cc1OCCCC(=O)Nc1cc(C(=O)Nc3ccc4sc(C(=O)NCC(C)(C)SSC)cc4c3)n(C)c1)N=C[C@@H]1Cc3ccccc3CN1C2=O | 11.70 | 10.52 | 11.30 |
| COC(=O)CCNC(=O)c1cc2cc(NC(=O)c3nc(NC(=O)CCCOc4cc5c(cc4OC)C(=O)N4c6ccccc6C[C@H]4C=N5)cn3C)ccc2s1 | 11.00 | – | – |
| COc1cc2c(cc1OCCCC(=O)Nc1cn(C)c(C(=O)Nc3ccc(NC(=O)CCC(C)(C)SSC)cc3)n1)N=C[C@@H]1Cc3ccccc3N1C2=O | 10.52 | 9.40 | 10.52 |
| COC(=O)CCNC(=O)c1cc2cc(NC(=O)c3cc(NC(=O)CCCOc4cc5c(cc4OC)C(=O)N4c6ccccc6C[C@H]4C=N5)cn3C)ccc2o1 | 10.22 | 9.30 | 9.70 |
